Columns and labels:
[1] = tested on: TNFα release by human PBMCs; test: Cytokine release by LPS stimulated human PBMCs (TNFα ELISA); assay type: cell-based; details: PBMC, 24 h, Table 5, LPS 1 μg/mL
Procedure: For the assay PBMCs are seeded at 2.5E6 cells/mL in 160 μL in 96-well plates (Nunc). Serial dilution of the test compounds are made first in DMSO (Sigma) and then diluted 50-fold in M199 medium (Gibco) containing 1% heat-inactivated FBS. Compounds are further 1/10 diluted in the assay plates to obtain final DMSO concentration of 0.2%. Cells are preincubated with the compounds for 1 hr at 37° C., 5% CO2. Then, cells are stimulated with LPS (Escherichia coli serotype 026:B6, Cat. No. L2654, Sigma) that is added in a volume of 20 μL to a final concentration of 1 μg/mL and cells are further cultured for 24 hr. The plates are centrifuged and the supernatant is collected and stored at −80° C. until analysis of appropriate dilutions in ELISAs.
After 4 hr incubation at RT, blocking buffer is removed and plates are washed once with PBST (1×PBS with 0.05% Tween-20 (Sigma)). Then, 40 μL of sample is transferred to the ELISA plates and plates are incubated at 4° C. […] After 2 h of incubation at RT, plates are washed as described above and 35 μL/well of a 1/2000 dilution of streptavidin-HRP conjugate (Cat. No. SNN2004, Biosource) in buffer D is added. After 45 min, plates are washed as described above and incubated for 5 min with 50 μL/well BM Chemiluminescence ELISA Substrate POD (Roche). Readout is performed on the Luminoscan Ascent Luminometer (Labsystems) with an integration time of 100 msec delivering raw data (RLU: relative luminescence units). The following controls are included in the experiments, a maximal signal control, in which the cells are activated by LPS but only the 0.2% DMSO vehicle (and thus no compound) is added. […] A minimal signal control is also included in these experiments. Here, cells are not triggered. […] Where compounds are tested at 8 concentrations (1/3 serial dilution), EC50-values can be calculated by curve fitting of the means of the PIN data achieved for a compound at each test concentration.

[2] = biological target: T1, MAPKAPK5 (Homo sapiens, UniProt Q8IW41); test: MAPKAP-K5 assay (FlashPlate kinase assay)
T1 sequence (Q8IW41 1-471 isoform Q8IW41-2): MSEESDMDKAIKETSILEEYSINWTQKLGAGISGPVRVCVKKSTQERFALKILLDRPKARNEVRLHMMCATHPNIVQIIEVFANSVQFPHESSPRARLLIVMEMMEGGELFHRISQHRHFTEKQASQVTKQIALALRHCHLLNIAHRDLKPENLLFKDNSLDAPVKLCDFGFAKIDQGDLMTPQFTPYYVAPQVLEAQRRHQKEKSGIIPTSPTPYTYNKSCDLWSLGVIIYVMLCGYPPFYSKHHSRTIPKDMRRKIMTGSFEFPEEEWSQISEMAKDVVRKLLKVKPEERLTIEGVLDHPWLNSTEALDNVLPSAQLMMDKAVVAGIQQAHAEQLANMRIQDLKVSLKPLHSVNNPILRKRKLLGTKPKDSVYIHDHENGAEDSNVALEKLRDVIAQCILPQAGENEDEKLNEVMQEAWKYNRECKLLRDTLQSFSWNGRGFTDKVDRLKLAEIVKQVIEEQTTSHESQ
Procedure: MAPKAP-K5 reactions are performed in FlashPlate format using 0.1 or 0.2 μCi 33P-ATP; 0.6 μM ATP; 1 mU MAPKAP-K5; 3 μM MAPKAP-K5 peptide substrate, incubated at room temperature for 30 minutes.
The MAPKAP-K5 kinase reaction is performed in a 384 well polypropylene plate (Matrix Technologies) and then transferred to a streptavidin-coated 384 well flashplate (Perkin-Elmer).
To wells containing 2 μL test compound or standard inhibitor, 13 μL Enzyme mix or diluent are added using a Hydra (Robbins Scientific).
Reactions are started by addition of 10 μL of [2,5×] substrate cocktail using a Multidrop (Thermo-Labsystems), to give final concentrations in the assay of:
Plates are incubated at room temperature for 30 minutes.
Reactions are terminated by the addition of 25 μL EDTA (50 mM) to each well using a Micro-fill (Biotek).
Reactions are transferred to a streptavidin-coated flashplate using a Zymark robotic system. Plates are incubated for 60 minutes at room temperature.
All wells are washed 3 times with 100 μl phosphate buffered saline using a Tecan plate washer.
Radioactivity is determined by scintillation counting of the flashplate (empty wells) on a Packard TopCount.
Enzyme Mix: • Enzyme • 50 mM Tris Hcl (pH 7.5) • 0.1 mM EGTA • 2 mM DTT • 1 mg/mL BSA
Reaction Buffer: • 50 mM Tris Hcl (pH 7.5) • 0.1 mM EGTA • 10 mM Magnesium acetate • 2 mM DTT

[3] = tested on: MMP1 expression by activated primary synovial fibroblasts; test: 'MMP assay': MMP1 expression by complex trigger activated synovial fibroblasts (MMP1 ELISA); assay type: cell-based; details: Homo sapiens, Fibroblast, RASFs, complex trigger, 48 hrs, MMP1 ELISA

| SMILES | EC50 [1] [nM] | IC50 [2] [nM] | EC50 ([3]; Table 3) [nM] | EC50 ([3]; Table 4) [nM] |
| --- | --- | --- | --- | --- |
| CN1CCN(c2ccc(Nc3ncc(-c4cn[nH]c4)n4ncnc34)cc2)CC1 [Compound 2] | > 1000 | > 1000 | > 1000 | – |
| CN1CCN(c2ccc(Nc3ncc(-c4ccc(C(N)=O)cc4)n4ncnc34)cc2)CC1 [Compound 3] | > 1000 | > 1000 | 101 to 500 | – |
| CN(Cc1ccccc1)C(=O)c1cccc(Nc2ncc(-c3cn[nH]c3)n3ncnc23)c1 [Compound 134, N-Benzyl-N-methyl 3-[5-(1H-pyrazol-4-yl)-[1,2,4]triazolo[1,5-a]pyrazin-8-ylamino]benzamide] | – | > 1000 | – | 501 to 1000 |
| CNC(=O)C1CCN(C(=O)c2ccc(Nc3ncc(-c4cn[nH]c4)n4ncnc34)cc2)CC1 [Compound 136] | – | 501 to 1000 | – | > 1000 |
| O=C(NCCc1ccncc1)c1ccc(Nc2ncc(-c3cn[nH]c3)n3ncnc23)cc1 [Compound 137] | – | 501 to 1000 | – | > 1000 |
| CCN1CCN(C(=O)c2ccc(Nc3ncc(-c4cn[nH]c4)n4ncnc34)cc2)CC1 [Compound 138] | – | 501 to 1000 | – | > 1000 |
| CCN1CCCC1CNC(=O)c1ccc(Nc2ncc(-c3cn[nH]c3)n3ncnc23)cc1 (stereo not drawn) [Compound 139] | – | 501 to 1000 | – | > 1000 |
| O=C(c1ccc(Nc2ncc(-c3cn[nH]c3)n3ncnc23)cc1)N1CC=CC1 [Compound 140] | – | 501 to 1000 | – | > 1000 |
| CCOCCN1CCN(C(=O)c2ccc(Nc3ncc(-c4cn[nH]c4)n4ncnc34)cc2)CC1 [Compound 141] | – | 501 to 1000 | – | > 1000 |
| O=C(NCC1CC1)c1ccc(Nc2ncc(-c3cn[nH]c3)n3ncnc23)cc1 [Compound 142] | – | > 1000 | – | > 1000 |
| CC(=O)N(C)C1CCN(C(=O)c2ccc(Nc3ncc(-c4cn[nH]c4)n4ncnc34)cc2)C1 (stereo not drawn) [Compound 143] | – | 501 to 1000 | – | > 1000 |
| O=C(c1ccc(Nc2ncc(-c3cn[nH]c3)n3ncnc23)cc1)N1CCN(c2ccccc2)CC1 [Compound 145] | – | 501 to 1000 | – | > 1000 |
| COC[C@@H]1CCCN1C(=O)c1ccc(Nc2ncc(-c3cn[nH]c3)n3ncnc23)cc1 [Compound 146] | – | > 1000 | – | > 1000 |
| O=C(c1ccc(Nc2ncc(-c3cn[nH]c3)n3ncnc23)cc1)N1CCN(c2ccccn2)CC1 [Compound 148] | – | 501 to 1000 | – | > 1000 |
| CCC(COC)NC(=O)c1ccc(Nc2ncc(-c3cn[nH]c3)n3ncnc23)cc1 (stereo not drawn) [Compound 149] | – | > 1000 | – | > 1000 |
| COCCN1CCN(C(=O)c2ccc(Nc3ncc(-c4cn[nH]c4)n4ncnc34)cc2)CC1 [Compound 150] | – | 501 to 1000 | – | > 1000 |
| O=C(NCCc1ccc(O)cc1)c1ccc(Nc2ncc(-c3cn[nH]c3)n3ncnc23)cc1 [Compound 151] | – | > 1000 | – | > 1000 |
| CCC(C)N1CCN(C(=O)c2ccc(Nc3ncc(-c4cn[nH]c4)n4ncnc34)cc2)CC1 (stereo not drawn) [Compound 152] | – | 501 to 1000 | – | > 1000 |
| CN1CCN(c2ccc(NC(=O)c3ccc(Nc4ncc(-c5cn[nH]c5)n5ncnc45)cc3)cc2)CC1 [Compound 153] | – | 501 to 1000 | – | > 1000 |
| CCOC(=O)CN(Cc1ccccc1)C(=O)c1ccc(Nc2ncc(-c3cn[nH]c3)n3ncnc23)cc1 [Compound 154] | – | > 1000 | – | > 1000 |
| CC(C)NC(=O)CN1CCN(C(=O)c2ccc(Nc3ncc(-c4cn[nH]c4)n4ncnc34)cc2)CC1 [Compound 155] | – | 501 to 1000 | – | > 1000 |
| COCCN(C)C(=O)c1ccc(Nc2ncc(-c3cn[nH]c3)n3ncnc23)cc1 [Compound 156] | – | > 1000 | – | > 1000 |
| CCN(CCOC)C(=O)c1ccc(Nc2ncc(-c3cn[nH]c3)n3ncnc23)cc1 [Compound 157] | – | > 1000 | – | > 1000 |
| O=C(NCC1CCCO1)c1ccc(Nc2ncc(-c3cn[nH]c3)n3ncnc23)cc1 (stereo not drawn) [Compound 158] | – | 501 to 1000 | – | > 1000 |

| SMILES | EC50 [1] [nM] | IC50 [2] [nM] | EC50 ([3]; Table 3) [nM] | EC50 ([3]; Table 4) [nM] |
| --- | --- | --- | --- | --- |
| O=C(c1ccc(Nc2ncc(-c3cn[nH]c3)n3ncnc23)cc1)N1CC=CCC1 [Compound 159] | – | 501 to 1000 | – | > 1000 |
| CSCCNC(=O)c1ccc(Nc2ncc(-c3cn[nH]c3)n3ncnc23)cc1 [Compound 160] | – | 501 to 1000 | – | > 1000 |
| CC1(C)OCC(CNC(=O)c2ccc(Nc3ncc(-c4cn[nH]c4)n4ncnc34)cc2)O1 (stereo not drawn) [Compound 161] | – | 501 to 1000 | – | > 1000 |
| CC(C)N(CCNC(=O)c1ccc(Nc2ncc(-c3cn[nH]c3)n3ncnc23)cc1)C(C)C [Compound 162] | – | 501 to 1000 | – | > 1000 |
| CC(C)CNC(=O)c1ccc(Nc2ncc(-c3cn[nH]c3)n3ncnc23)cc1 [Compound 164] | – | > 1000 | – | > 1000 |
| O=C(c1ccc(Nc2ncc(-c3cn[nH]c3)n3ncnc23)cc1)N1CCC(N2CCCCC2)CC1 [Compound 165] | – | > 1000 | – | > 1000 |
| O=C(NCCO)c1ccc(Nc2ncc(-c3cn[nH]c3)n3ncnc23)cc1 [Compound 166] | – | 501 to 1000 | – | > 1000 |
| NC(=O)c1cc(-c2cnc(Nc3ccc(NC(=O)Cc4ccccc4)nc3)c3ncnn23)cs1 [Compound 167, 4-[8-(6-Phenylacetylamino-pyridin-3-ylamino)-[1,2,4]triazolo[1,5-a]pyrazin-5-yl]-thiophene-2-carboxylic acid amide] | – | 501 to 1000 | – | > 1000 |
| Nc1nccn1-c1ncc(-c2ccc3c(c2)CNC3=O)n2ncnc12 [Compound 168] | – | > 1000 | > 1000 | – |
| CC(C)N1CCN(c2ccc(Nc3ncc(-c4cc5c(cn4)C(=O)NC5)n4ncnc34)cc2)CC1 [Compound 173] | – | > 1000 | > 1000 | – |
| O=C1CN(c2ccc(Nc3ncc(-c4cn[nH]c4)n4ncnc34)cc2)CCN1 [Compound 177] | – | > 1000 | > 1000 | – |
| CC(C)(C)NC(=O)N1CCC(Nc2ncc(-c3ccc4c(c3)CNC4=O)n3ncnc23)CC1 [Compound 178] | – | 501 to 1000 | > 1000 | – |
| O=C1NCc2cc(-c3cnc(NC4CCC4)c4ncnn34)ccc21 [Compound 182] | – | 101 to 500 | > 1000 | – |
| CC(C)(C)N1CCN(c2ccc(Nc3ncc(-c4coc(C(N)=O)c4)n4ncnc34)cc2)CC1 [Compound 183] | – | 1 to 100 | > 1000 | – |
| O=C1NCc2cc(-c3cnc(NCC4CCCCC4)c4ncnn34)ccc21 [Compound 184] | – | 101 to 500 | > 1000 | – |
| O=C1NCc2cc(-c3cnc(NC4CCNCC4)c4ncnn34)ccc21 [Compound 185] | – | > 1000 | > 1000 | – |
| O=C(NCc1cc(-c2ccccc2)on1)c1ccc(Nc2ncc(-c3cn[nH]c3)n3ncnc23)cc1 [Compound 192] | – | > 1000 | – | 101 to 500 |
| O=C(Nc1ccc(N2CCOCC2)nc1)c1ccc(Nc2ncc(-c3ccc4c(c3)CNC4=O)n3ncnc23)cc1 [Compound 193] | – | > 1000 | – | > 1000 |
| O=C(Nc1ccc(N2CCOCC2)nc1)c1ccc(Nc2ncc(-c3cn[nH]c3)n3ncnc23)cc1 [Compound 194] | – | > 1000 | – | 501 to 1000 |
| O=C(N[C@@H]1CCN(Cc2ccccc2)C1)c1ccc(Nc2ncc(-c3ccc4c(c3)CNC4=O)n3ncnc23)cc1 [Compound 195] | – | 101 to 500 | – | > 1000 |
| O=C(N[C@H]1CCN(Cc2ccccc2)C1)c1ccc(Nc2ncc(-c3ccc4c(c3)CNC4=O)n3ncnc23)cc1 [Compound 196] | – | 101 to 500 | – | > 1000 |
| O=C(NCc1cc(-c2ccccc2)on1)c1ccc(Nc2ncc(-c3ccc4c(c3)CNC4=O)n3ncnc23)cc1 [Compound 197] | – | > 1000 | – | > 1000 |
| O=C(Nc1cn(Cc2ccccc2)cn1)c1ccc(Nc2ncc(-c3cn[nH]c3)n3ncnc23)cc1 [Compound 198] | – | > 1000 | – | > 1000 |

— patent publication US20100298300A1, “TRIAZOLOPYRAZINE COMPOUNDS USEFUL FOR THE TREATMENT OF DEGENERATIVE & INFLAMMATORY DISEASES” (priority 2006, published 2010)
